Structures can show the parent of a compound that is named as a salt.
Test: Solubility of (S)-citalopram oxalate in alcohol
Type: physicochemical
Conditions: 5 gm in 35 ml of methanol at 25° C.
Excerpt: According to another aspect of the present invention there is provided a process for preparation of the Form II of (S)-citalopram oxalate. Thus (S)-citalopram oxalate is mixed with an alcohol. (S)-Citalopram oxalate prepared by the process described in, for example, EP 0347066 or the Form I of (S)-citalopram oxalate may be used. The alcohol is either methanol or ethanol or isopropyl alcohol. The solubility of (S)-citalopram oxalate depends on the alcohol used and volume of the alcohol to (S)-citalopram oxalate. For example, 5 gm of (S)-citalopram oxalate is soluble in 35 ml of methanol at 25° C. If (S)-citalopram oxalate is soluble in the conditions of experiment, the Form II of (S)-citalopram oxalate is precipitated from the solution. The techniques such as cooling, partial removal of the solvent, addition of anti-solvent like diisopropyl ether may be used to precipitate the Form II of (S)-citalopram oxalate. If the (S)-citalopram oxalate is insoluble in the alcohol, after mixing (S)-citalopram oxalate and the alcohol the solid is filtered from the contents to obtain Form II of (S)-citalopram oxalate.

solubility in methanol: soluble
SMILES: CN(C)CCC[C@@]1(c2ccc(F)cc2)OCc2cc(C#N)ccc21 [(S)-citalopram oxalate, 1(S)-[3-(Dimethylamino)propyl]-1-(4-fluorophenyl)-1,3-dihydro-5-isobenzofurancarbonitrile]

Source: US20050154052A1, “Novel crystalline forms of (s)-citalopram oxalate” (Hetero Drugs Limited, priority 2003, published 2005)
